Experimental data as given in patent US11976054B2, “Amide derivative and preparation method therefore and use thereof in medicine” (Chengdu Baiyu Pharmaceutical Co., Ltd., priority 2019, dated 2024).

Assays:
[1] = test system: Human monocyte cell line THP-1; test: Detection of THP-1 cell pyroptosis (Caspase-Glo 1 Inflammasome Assay); assay type: cell-based; conditions: 20 nM PMA 48 h, 1 μg/mL LPS, compound 3 h
Description: Human monocyte cell line THP-1 (ATCC® TB-202TM) was cultured in RPMI-1640 culture medium containing […], 1 mM pyruvic acid, 0.05 mM β-mercaptoethanol and 10% double antibody under the culture conditions of 37° C. and […].
Cell counting was performed, THP-1 cells were seeded into a 96-well plate at 50000 per well, and 20 nM PMA was added for inducing at 37° C./5% CO2 for 48 h. The culture medium was then discarded, and 100 μL of serum-free RPMI-1640 medium containing 1 μg/mL LPS was added. 5 μL of compound or solvent control was added and 3-fold diluted in gradient from a maximum concentration of 10 μM, and 10 gradient concentrations were set. The mixtures were incubated at 37° C./5% CO2 for 3 h. After the incubation, the mixtures were centrifuged at 300 g for 5 min, and the culture medium was discarded. Pyroptosis assay was performed according to specific steps described in instructions of Caspase-Glo® 1 Inflammasome Assay kit. IC50 was calculated using GraphPad Prism7.0 software.

[2] = Pharmacokinetic analysis of compounds in rats; assay type: in vivo, SD rats; conditions: SD, rat, in vivo
Description: Healthy adult SD rats weighing 180-220 g were fasted (free access to water) overnight and divided into tail vein administration group and intragastric administration group. The tail vein administration group was subjected to blood collection of 0.1 mL from orbital venous plexus before the administration and 5 min, 15 min, 0.5 h, 1 h, 2 h, 4 h, 8 h, 12 h and 24 h after the administration, and plasma was separated out by centrifugation at 4° C. for 5 min and stored at −20° C. for test. The intragastric administration group was subjected to blood collection of 0.1 mL from orbital venous plexus before the administration and 5 min, 15 min, 0.5 h, 1 h, 2 h, 4 h, 8 h, 12 h and 24 h after the administration, and the subsequent treatment procedures were the same as those of the tail vein injection group. The concentration of parent drug in the plasma was determined by LC-MS/MS.

[3] = Homo sapiens, THP-1, THP-1 pyroptosis

Molecule	IC50 ([1]; THP-1 pyroptosis) [µM]	IC50 [1, 3] [µM]	also measured
CC(c1ccc2c(c1NC(=O)NS(=N)(=O)c1cc(C(C)(C)O)co1)CC2)C1CC1 (racemic) [Compound 36-2, (RS, SC)- and (SS, SC)-N-((3-(1-cyclopropylethyl)bicyclo[4.2.0]octa-1(6),2,4-trien-2-yl)carbamoyl)-4-(2-hydroxypropan-2-yl)furan-2-sulfonimidamide]	1 to 5	–	–
CC(C)(O)c1coc(S(=O)(=O)NC(=O)Nc2c(CC3CC3)ccc3c2CCC3)c1 [Compound 3, N-((5-(cyclopropylmethyl)-2,3-dihydro-1H-inden-4-yl)carbamoyl)-4-(2-hydroxypropan-2-yl)furan-2-sulfonamide]	–	0.1 to 0.5	–
CC(C)(O)c1ncc(S(=N)(=O)NC(=O)Nc2c(CC3CCC3)ccc3c2CCC3)s1 (single isomer, unassigned) [Compound 19-2, RS- and SS-N-((5-(cyclobutylmethyl)-2,3-dihydro-1H-inden-4-yl)carbamoyl)-2-(2-hydroxypropan-2-yl)thiazole-5-sulfonimidamide]	0.1 to 0.5	–	–
RS- and SS-N-((5-(cyclobutylmethyl)-2,3-dihydro-1H-inden-4-yl-7-d)carbamoyl)-4-(2-hydroxypropan-2-yl)furan-2-sulfonimidamide [Compound 39-2]	1 to 5	–	–
CC(C)(O)c1csc(S(=N)(=O)NC(=O)Nc2c(CC3CCC3)ccc3c2CCC3)c1 (centres unmarked) [Compound 83A, N-((5-(cyclobutylmethyl)-2,3-dihydro-1H-inden-4-yl)carbamoyl)-4-(2-hydroxypropan-2-yl)thiophene-2-sulfonimidamide]	–	≤ 0.1	–
C[C@H](c1ccc2c(c1NC(=O)NS(=O)(=O)c1cc(C(C)(C)O)co1)CC2)C1CC1 [Compound 35, (S)-N-((3-(1-cyclopropylethyl)bicyclo[4.2.0]octa-1(6),2,4-trien-2-yl)carbamoyl)-4-(2-hydroxypropan-2-yl)furan-2-sulfonamide]	–	1 to 5	–
C[C@H](c1ccc2c(c1NC(=O)NS(=N)(=O)c1ccc(C3(O)COC3)s1)CCC2)C1CC1 (stereo partly drawn) [Compound 65C, N-((5-((S)-1-cyclopropylethyl)-2,3-dihydro-1H-inden-4-yl)carbamoyl)-5-(3-hydroxyoxetan-3-yl)thiophene-2-sulfonimidamide]	–	0.1 to 0.5	–
CC(C)(O)c1coc(S(=N)(=O)NC(=O)Nc2c(CC3CCC3)ccc3c2CC3)c1 (single isomer, unassigned) [Compound 34-2, RS- and SS-N-((3-(cyclobutylmethyl)bicyclo[4.2.0]octa-1(6),2,4-trien-2-yl)carbamoyl)-4-(2-hydroxypropan-2-yl)furan-2-sulfonimidamide]	≤ 0.1	–	–
CC(C)c1cccc(C(C)C2CC2)c1NC(=O)NS(=N)(=O)c1cc(C(C)(C)O)co1 (racemic) [Compound 74-1, (RS, RC)- and (SS, RC)-N-((2-(1-cyclopropylethyl)-6-isopropylphenyl)carbamoyl)-4-(2-hydroxypropan-2-yl)furan-2-sulfonimidamide]	≤ 0.1	–	–
Cc1oc(S(=N)(=O)NC(=O)Nc2c(C(C)C3CC3)ccc3c2CCC3)cc1C(C)(C)O (racemic) [Compound 25-1, (RS, SC)- and (SS, SC)-N-((5-(1-cyclopropylethyl)-2,3-dihydro-1H-inden-4-yl)carbamoyl)-4-(2-hydroxypropan-2-yl)-5-methylfuran-2-sulfonimidamide]	≤ 0.1	–	–
CC(C)(O)c1coc(S(=O)(=O)NC(=O)Nc2c(CC3CCCC3)ccc3c2CCC3)c1 [Compound 28, N-((5-(cyclopentylmethyl)-2,3-dihydro-1H-inden-4-yl)carbamoyl)-4-(2-hydroxypropan-2-yl)furan-2-sulfonamide]	–	0.5 to 1	–
C[C@H](c1ccc2c(c1NC(=O)NS(=O)(=O)c1sc(C(C)(C)O)cc1C#N)CCC2)C1CC1 [Compound 63, (S)-3-cyano-N-((5-(1-cyclopropylethyl)-2,3-dihydro-1H-inden-4-yl)carbamoyl)-5-(2-hydroxypropan-2-yl)thiophene-2-sulfonamide]	–	0.1 to 0.5	–
CC(C)c1cccc([C@@H](C)C2CC2)c1NC(=O)NS(=O)(=O)c1cc(C(C)(C)O)co1 [Compound 71, (S)-N-((2-(1-cyclopropylethyl)-6-isopropylphenyl)carbamoyl)-4-(2-hydroxypropan-2-yl)furan-2-sulfonamide]	–	0.1 to 0.5	–
C[C@H](c1ccc2c(c1NC(=O)N[S@@](=N)(=O)c1cc(C(C)(C)O)cs1)CCC2)C1CC1 [Compound 54-1]	–	1 to 5	–
CC(C)c1cccc(CC2CCC2)c1NC(=O)NS(=N)(=O)c1cc(C(C)(C)O)co1 (single isomer, unassigned) [Compound 70-1, RS- and SS-N-((2-(cyclobutylmethyl)-6-isopropylphenyl)carbamoyl)-4-(2-hydroxypropan-2-yl)furan-2-sulfonimidamide]	≤ 0.1	–	–
C[C@@H](c1ccc2c(c1NC(=O)NS(=O)(=O)c1sc(C(C)(C)O)cc1F)CCC2)C1CC1 [Compound 64, (R)-N-((5-(1-cyclopropylethyl)-2,3-dihydro-1H-inden-4-yl)carbamoyl)-3-fluoro-5-(2-hydroxypropan-2-yl)thiophene-2-sulfonamide]	–	0.1 to 0.5	–
CC(C)c1cccc([C@H](C)C2CC2)c1NC(=O)NS(=O)(=O)c1cc(C(C)(C)O)co1 [Compound 72]	–	0.1 to 0.5	–
(RS, SC)- and (SS, SC)-N-((5-(1-cyclobutylethyl)-2,3-dihydro-1H-inden-4-yl)carbamoyl)-4-(2-hydroxypropan-2-yl)furan-2-sulfonimidamide [Compound 82-2]	1 to 5	–	–
C[C@H](c1ccc2c(c1NC(=O)NS(=O)(=O)c1cc(C3(O)CC3)co1)CCC2)C1CC1 [Compound 60, (S)-N-((5-(1-cyclopropylethyl)-2,3-dihydro-1H-inden-4-yl)carbamoyl)-4-(1-hydroxycyclopropyl)furan-2-sulfonamide]	–	0.1 to 0.5	–
C[C@@H](c1ccc2c(c1NC(=O)N[S@@](=N)(=O)c1cc(C(C)(C)O)cs1)CCC2)C1CC1 [Compound 55-1]	–	0.1 to 0.5	–
CC(C)(O)c1ccc(S(=N)(=O)NC(=O)Nc2c(CC3CCC3)ccc3c2CCC3)s1 (racemic) [Compound 53-2, (RS)- and (SS)-N-((5-(cyclobutylmethyl)-2,3-dihydro-1H-inden-4-yl)carbamoyl)-5-(2-hydroxypropan-2-yl)thiophene-2-sulfonimidamide]	0.1 to 0.5	–	–
C[C@@H](c1ccc2c(c1NC(=O)NS(=O)(=O)c1sc(C(C)(C)O)cc1C#N)CCC2)C1CC1 [Compound 62, (R)-3-cyano-N-((5-(1-cyclopropylethyl)-2,3-dihydro-1H-inden-4-yl)carbamoyl)-5-(2-hydroxypropan-2-yl)thiophene-2-sulfonamide]	–	≤ 0.1	–
C[C@@H](c1ccc2c(c1NC(=O)NS(=O)(=O)c1cc(C3(O)CC3)co1)CCC2)C1CC1 [Compound 59, (R)-N-((5-(1-cyclopropylethyl)-2,3-dihydro-1H-inden-4-yl)carbamoyl)-4-(1-hydroxycyclopropyl)furan-2-sulfonamide]	–	0.5 to 1	–
Cc1oc(S(=N)(=O)NC(=O)Nc2c(C(C)C3CC3)ccc3c2CCC3)cc1C(C)(C)O (single isomer, unassigned) [Compound 24-1, RS- and SS-N-((5-(1-cyclopropylethyl)-2,3-dihydro-1H-inden-4-yl)carbamoyl)-4-(2-hydroxypropan-2-yl)-5-methylfuran-2-sulfonimidamide]	0.1 to 0.5	–	–
CC(c1ccc2c(c1NC(=O)NS(=O)(=O)c1cc(C(C)(C)O)co1)CCC2)C1CC1 (centres unmarked) [Compound 1, N-((5-(1-cyclopropylethyl)-2,3-dihydro-1H-inden-4-yl)carbamoyl)-4-(2-hydroxypropan-2-yl)furan-2-sulfonamide]	–	0.1 to 0.5	–
C[C@@H](c1cc(C#N)c2c(c1NC(=O)NS(=O)(=O)c1cc(C(C)(C)O)co1)CCC2)C1CC1 [Compound 45, (R)-N-((7-cyano-5-(1-cyclopropylethyl)-2,3-dihydro-1H-inden-4-yl)carbamoyl)-4-(2-hydroxypropan-2-yl)furan-2-sulfonamide]	–	0.1 to 0.5	–
CC(c1cc(C#N)c2c(c1NC(=O)NS(=N)(=O)c1cc(C(C)(C)O)co1)CCC2)C1CC1 (racemic) [Compound 48-2, (RS, SC)- and (SS, SC)-N-((7-cyano-5-(1-cyclopropylethyl)-2,3-dihydro-1H-inden-4-yl)carbamoyl)-4-(2-hydroxypropan-2-yl)furan-2-sulfonimidamide]	1 to 5	–	–
CC(C)(O)c1coc(S(=O)(=O)NC(=O)Nc2c3c(cc4c2CCC4)CCC3)c1 [Control 3, 1-(1,2,3,5,6,7-hexahydro-s-indacen-4-yl)-3-[4-(1-hydroxy-1-methyl-ethyl)-furan-2-sulfonyl]urea, reference compound]	–	–	AUC ([2]; iv, 1 mg/kg): 1400 ng·h/mL; Vd ([2]; iv, 1 mg/kg): 0.402 L/kg; clearance ([2]; iv, 1 mg/kg): 14.2 mL/min/kg; half-life ([2]; iv, 1 mg/kg): 0.46 h; bioavailability ([2]; po): 36.4%; AUC ([2]; po, 10 mg/kg): 5080 ng·h/mL; Cmax ([2]; po, 10 mg/kg): 1930 ng/mL; half-life ([2]; po, 10 mg/kg): 2.1 h
